The record followed here is the supplement of paper PMC10307832.

Holding throughout (experiment): relative viability (nuclei count vs DMSO), 5 days (fraction); higher = more cells survive
Compound in the experiment “GW-2580 + Bortezomib”: COC1=CC=C(C=C1)COC2=C(C=C(C=C2)CC3=CN=C(N=C3N)N)OC [GW-2580] + CC(C)C[C@H](NC(=O)[C@H](Cc1ccccc1)NC(=O)c1cnccn1)B(O)O [Bortezomib] (partner 0.002 µM)
The procedure, abridged:
(§1)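 Values are medians from duplicate plates. Each reflects relative viability, defined as the nuclei count of treated wells over that of vehicle wells. Lung cancer cell lines in 1536-well plates were pin-tool dosed one day after seeding with one drug alone or with a fixed anchor-drug dose plus five library-drug doses (not always all listed) in √10 steps, then fixed, stained and imaged at 4× after 5 days.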

Compound in the experiment “GW-2580 + OSI-027”: COC1=CC=C(C=C1)COC2=C(C=C(C=C2)CC3=CN=C(N=C3N)N)OC [GW-2580] + COc1cccc2cc(-c3nc([C@H]4CC[C@H](C(=O)O)CC4)n4ncnc(N)c34)[nH]c12 [OSI-027] (partner 0.5 µM)
In outline: as §1

Compound in the experiment “GW-2580 + Pictilisib”: COC1=CC=C(C=C1)COC2=C(C=C(C=C2)CC3=CN=C(N=C3N)N)OC [GW-2580] + CS(=O)(=O)N1CCN(Cc2cc3nc(-c4cccc5[nH]ncc45)nc(N4CCOCC4)c3s2)CC1 [Pictilisib] (partner 1 µM)
The procedure, abridged:
as §1

Compound in the experiment “GW-2580 + Olaparib”: COC1=CC=C(C=C1)COC2=C(C=C(C=C2)CC3=CN=C(N=C3N)N)OC [GW-2580] + O=C(c1cc(Cc2n[nH]c(=O)c3ccccc23)ccc1F)N1CCN(C(=O)C2CC2)CC1 [Olaparib] (partner 8 µM)
In outline:
as §1

Compound in the experiment “Fedratinib + AZD7762”: Cc1cnc(Nc2ccc(OCCN3CCCC3)cc2)nc1Nc1cccc(S(=O)(=O)NC(C)(C)C)c1 [Fedratinib] + NC(=O)Nc1cc(-c2cccc(F)c2)sc1C(=O)N[C@H]1CCCNC1 [AZD7762] (partner 0.2 µM)
In outline:
as §1

On to NCI-H2126, for which the relative viability was 1.14 with GW-2580 + Bortezomib (first compound 0.08 µM); 1.24 in the experiment with GW-2580 + Bortezomib (first compound 0.8 µM); 1.03 with GW-2580 + Bortezomib (first compound 2.53 µM); 1.14 with GW-2580 + Bortezomib (first compound 8 µM); 0.697 with GW-2580 + OSI-027 (first compound 0.08 µM); 0.793 in the experiment with GW-2580 + OSI-027 (first compound 0.8 µM). Further, the relative viability with GW-2580 + OSI-027 (first compound 2.53 µM) came out at 0.706; in the experiment with GW-2580 + OSI-027 (first compound 8 µM), 0.716; in the experiment with GW-2580 + Pictilisib (first compound 0.08 µM) it was 0.483; with GW-2580 + Pictilisib (first compound 0.8 µM), 0.497; with GW-2580 + Pictilisib (first compound 2.53 µM), 0.448; with GW-2580 + Pictilisib (first compound 8 µM), 0.452. The relative viability with GW-2580 + Olaparib (first compound 0.08 µM) was found to be 1.02; with GW-2580 + Olaparib (first compound 0.8 µM), 0.942; with GW-2580 + Olaparib (first compound 2.53 µM), 0.793; with GW-2580 + Olaparib (first compound 8 µM), 0.851; with Fedratinib + AZD7762 (first compound 0.1 µM), 1.06; with Fedratinib + AZD7762 (first compound 0.3162 µM) it was 1.01. Moreover, the relative viability in the experiment with Fedratinib + AZD7762 (first compound 1 µM) turned out to be 1.01.

On to NCI-H2347, for which the relative viability with GW-2580 + Bortezomib (first compound 0.08 µM) was found to be 1.01; with GW-2580 + Bortezomib (first compound 0.8 µM) it was 1.23; with GW-2580 + Bortezomib (first compound 2.53 µM), 0.842; with GW-2580 + Bortezomib (first compound 8 µM) it was 1.26; in the experiment with GW-2580 + OSI-027 (first compound 0.08 µM), 0.341; with GW-2580 + OSI-027 (first compound 0.8 µM) it was 0.364. The relative viability is 0.371 with GW-2580 + OSI-027 (first compound 2.53 µM); 0.433 with GW-2580 + OSI-027 (first compound 8 µM); 0.662 with GW-2580 + Pictilisib (first compound 0.08 µM); 0.992 in the experiment with GW-2580 + Pictilisib (first compound 0.8 µM); 0.592 with GW-2580 + Pictilisib (first compound 2.53 µM); 0.717 with GW-2580 + Pictilisib (first compound 8 µM). Further, the relative viability with GW-2580 + Olaparib (first compound 0.08 µM) amounted to 0.538; with GW-2580 + Olaparib (first compound 0.8 µM), 0.616; with GW-2580 + Olaparib (first compound 2.53 µM), 0.54; with GW-2580 + Olaparib (first compound 8 µM), 0.595; with Fedratinib + AZD7762 (first compound 0.1 µM), 0.757; with Fedratinib + AZD7762 (first compound 0.3162 µM) it was 0.645. The relative viability with Fedratinib + AZD7762 (first compound 1 µM) turned out to be 0.857.

On to NCI-H2405, for which the relative viability was determined as 1.02 with GW-2580 + Bortezomib (first compound 0.08 µM); 1.03 with GW-2580 + Bortezomib (first compound 0.8 µM); 0.807 in the experiment with GW-2580 + Bortezomib (first compound 2.53 µM); 0.951 with GW-2580 + Bortezomib (first compound 8 µM); 0.643 in the experiment with GW-2580 + OSI-027 (first compound 0.08 µM); 0.668 in the experiment with GW-2580 + OSI-027 (first compound 0.8 µM). Also, the relative viability with GW-2580 + OSI-027 (first compound 2.53 µM) worked out at 0.609; with GW-2580 + OSI-027 (first compound 8 µM), 0.618; with GW-2580 + Pictilisib (first compound 0.08 µM), 0.432; in the experiment with GW-2580 + Pictilisib (first compound 0.8 µM) it was 0.505; with GW-2580 + Pictilisib (first compound 2.53 µM), 0.319; in the experiment with GW-2580 + Pictilisib (first compound 8 µM), 0.529. For the same cell line, the relative viability turned out to be 0.911 with GW-2580 + Olaparib (first compound 0.08 µM); 0.981 in the experiment with GW-2580 + Olaparib (first compound 0.8 µM); 0.797 with GW-2580 + Olaparib (first compound 2.53 µM); 0.712 with GW-2580 + Olaparib (first compound 8 µM); 0.7 with Fedratinib + AZD7762 (first compound 0.1 µM); 0.764 with Fedratinib + AZD7762 (first compound 0.3162 µM). In addition, in the experiment with Fedratinib + AZD7762 (first compound 1 µM), the relative viability was 0.528.

As to NCI-H3122, the relative viability worked out at 1.04 with GW-2580 + Bortezomib (first compound 0.08 µM); 0.939 with GW-2580 + Bortezomib (first compound 0.8 µM); 1.1 in the experiment with GW-2580 + Bortezomib (first compound 2.53 µM); 1.11 with GW-2580 + Bortezomib (first compound 8 µM); 1.28 with GW-2580 + OSI-027 (first compound 0.08 µM); 1.24 with GW-2580 + OSI-027 (first compound 0.8 µM). The relative viability was determined as 1.19 with GW-2580 + OSI-027 (first compound 2.53 µM); 0.895 with GW-2580 + OSI-027 (first compound 8 µM); 0.586 in the experiment with GW-2580 + Pictilisib (first compound 0.08 µM); 0.611 with GW-2580 + Pictilisib (first compound 0.8 µM); 0.584 with GW-2580 + Pictilisib (first compound 2.53 µM); 0.576 with GW-2580 + Pictilisib (first compound 8 µM). Also, the relative viability with GW-2580 + Olaparib (first compound 0.08 µM) is 0.682; with GW-2580 + Olaparib (first compound 0.8 µM) it was 0.739; with GW-2580 + Olaparib (first compound 2.53 µM) it was 0.675; in the experiment with GW-2580 + Olaparib (first compound 8 µM) it was 0.648; with Fedratinib + AZD7762 (first compound 0.1 µM) it was 1.07; with Fedratinib + AZD7762 (first compound 0.3162 µM), 1.02. The relative viability with Fedratinib + AZD7762 (first compound 1 µM) was found to be 0.912.

PC-3 [JPC-3]: the relative viability with GW-2580 + Bortezomib (first compound 0.08 µM) stood at 0.886; in the experiment with GW-2580 + Bortezomib (first compound 0.8 µM), 1.01; with GW-2580 + Bortezomib (first compound 2.53 µM), 0.846; in the experiment with GW-2580 + Bortezomib (first compound 8 µM) it was 0.792; with GW-2580 + OSI-027 (first compound 0.08 µM) it was 0.75; with GW-2580 + OSI-027 (first compound 0.8 µM), 0.985. Also, the relative viability in the experiment with GW-2580 + OSI-027 (first compound 2.53 µM) worked out at 0.721; with GW-2580 + OSI-027 (first compound 8 µM), 0.724; with GW-2580 + Pictilisib (first compound 0.08 µM), 0.857; with GW-2580 + Pictilisib (first compound 0.8 µM), 0.798; in the experiment with GW-2580 + Pictilisib (first compound 2.53 µM), 0.716; with GW-2580 + Pictilisib (first compound 8 µM), 0.68. For the same cell line, the relative viability is 1.12 in the experiment with GW-2580 + Olaparib (first compound 0.08 µM); 1.26 with GW-2580 + Olaparib (first compound 0.8 µM); 1.03 in the experiment with GW-2580 + Olaparib (first compound 2.53 µM); 1.15 in the experiment with GW-2580 + Olaparib (first compound 8 µM); 0.775 in the experiment with Fedratinib + AZD7762 (first compound 0.1 µM); 0.976 with Fedratinib + AZD7762 (first compound 0.3162 µM). For the same cell line, the relative viability with Fedratinib + AZD7762 (first compound 1 µM) is 0.668.

On to PC-14, for which the relative viability in the experiment with GW-2580 + Bortezomib (first compound 0.08 µM) was found to be 0.934; with GW-2580 + Bortezomib (first compound 0.8 µM), 1.09; with GW-2580 + Bortezomib (first compound 2.53 µM), 0.779; with GW-2580 + Bortezomib (first compound 8 µM) it was 0.95; in the experiment with GW-2580 + OSI-027 (first compound 0.08 µM), 1; with GW-2580 + OSI-027 (first compound 0.8 µM) it was 1.08. The relative viability with GW-2580 + OSI-027 (first compound 2.53 µM) worked out at 0.671; in the experiment with GW-2580 + OSI-027 (first compound 8 µM), 0.817; with GW-2580 + Pictilisib (first compound 0.08 µM), 0.909; with GW-2580 + Pictilisib (first compound 0.8 µM), 1.03; in the experiment with GW-2580 + Pictilisib (first compound 2.53 µM), 0.781; with GW-2580 + Pictilisib (first compound 8 µM), 0.725. The relative viability in the experiment with GW-2580 + Olaparib (first compound 0.08 µM) came to 0.243; in the experiment with GW-2580 + Olaparib (first compound 0.8 µM), 0.247; in the experiment with GW-2580 + Olaparib (first compound 2.53 µM), 0.242; with GW-2580 + Olaparib (first compound 8 µM), 0.295; in the experiment with Fedratinib + AZD7762 (first compound 0.1 µM), 0.275; with Fedratinib + AZD7762 (first compound 0.3162 µM) it was 0.349. In addition, the relative viability in the experiment with Fedratinib + AZD7762 (first compound 1 µM) came to 0.215.

As to RERF-LC-KJ, the relative viability with GW-2580 + Bortezomib (first compound 0.08 µM) was 1.22; in the experiment with GW-2580 + Bortezomib (first compound 0.8 µM) it was 1.06; with GW-2580 + Bortezomib (first compound 2.53 µM) it was 1.04; with GW-2580 + Bortezomib (first compound 8 µM), 1.08; with GW-2580 + OSI-027 (first compound 0.08 µM) it was 0.584; in the experiment with GW-2580 + OSI-027 (first compound 0.8 µM), 0.606. Moreover, the relative viability with GW-2580 + OSI-027 (first compound 2.53 µM) is 0.501; in the experiment with GW-2580 + OSI-027 (first compound 8 µM) it was 0.484; in the experiment with GW-2580 + Pictilisib (first compound 0.08 µM) it was 0.553; with GW-2580 + Pictilisib (first compound 0.8 µM), 0.404; with GW-2580 + Pictilisib (first compound 2.53 µM), 0.478; with GW-2580 + Pictilisib (first compound 8 µM), 0.515. For the same cell line, the relative viability in the experiment with GW-2580 + Olaparib (first compound 0.08 µM) was 1; in the experiment with GW-2580 + Olaparib (first compound 0.8 µM), 1.04; with GW-2580 + Olaparib (first compound 2.53 µM), 0.888; with GW-2580 + Olaparib (first compound 8 µM), 0.861; in the experiment with Fedratinib + AZD7762 (first compound 0.1 µM), 0.895; in the experiment with Fedratinib + AZD7762 (first compound 0.3162 µM), 0.918. Also, the relative viability with Fedratinib + AZD7762 (first compound 1 µM) was 0.953.
